Assay results: patent US12533428B2, “Multimodal fluorine-CY3/5/7-DOTA-hapten compositions, diagnostics, fluorescence guided surgery and radioimmunotherapy” (Memorial Sloan Kettering Cancer Center, priority 2019, dated 2026)

Assay: In vivo biodistribution and pharmacokinetics in tumor free mice (gamma counter)
Experimental: The in vivo biodistribution and pharmacokinetics of ([^177Lu]-Compound 6) and BnDOTA[^177Lu] was investigated in tumor free mice. See FIGS. 17A-17B and Tables 2 and 3. Mice were dosed with radiolabeled probes at t=0 and sacrificed at various time points. Organs were harvested and activity was counted by gamma counter. Tables 2-3 show the serial biodistribution data for the analyzed organs of Compound 6 and Compound 2, respectively. FIG. 17A overlays the time course in activity in either vital tissues (left panel) or the blood (right panel) between the two probes.

With “BnDOTA[^177Lu] [[^177Lu]-Compound 2, reference compound]” the Uptake (Blood, 1 h after dosing) was 0.068 ± 0.029 % injected Dose/gram, the Uptake (Blood, 2 h after dosing) was 0.013 ± 0.005 % injected Dose/gram and the Uptake (Blood, 4 h after dosing) was 0.001 ± 0 % injected Dose/gram. For the same substance, the Uptake (Blood, 24 h after dosing) was 0.001 ± 0 % injected Dose/gram, the Uptake (Blood, 48 h after dosing) was 0.001 ± 0.001 % injected Dose/gram and the Uptake (Bone, 1 h after dosing) was 0.04 ± 0.012 % injected Dose/gram. The Uptake (Bone, 2 h after dosing) was 0.325 ± 0.276 % injected Dose/gram, the Uptake (Bone, 4 h after dosing) was 0.015 ± 0.013 % injected Dose/gram and the Uptake (Bone, 24 h after dosing) was 0.01 ± 0.008 % injected Dose/gram. It also gave an Uptake (Bone, 48 h after dosing) of 0.018 ± 0.028 % injected Dose/gram, an Uptake (Brain, 1 h after dosing) of 0.015 ± 0.006 % injected Dose/gram and an Uptake (Brain, 2 h after dosing) of 0.025 ± 0.01 % injected Dose/gram. For the same substance, the Uptake (Brain, 4 h after dosing) was 0.01 ± 0 % injected Dose/gram, the Uptake (Brain, 24 h after dosing) was 0.001 ± 0 % injected Dose/gram and the Uptake (Brain, 48 h after dosing) was 0.001 ± 0.001 % injected Dose/gram. For the same substance, the “Biodistribution, comparison of the two probes” value (FIG. 17B) was “comparable biodistribution”, the Uptake (Heart, 1 h after dosing) was 0.033 ± 0.013 % injected Dose/gram and the Uptake (Heart, 2 h after dosing) was 0.023 ± 0.005 % injected Dose/gram. For the same substance, the Uptake (Heart, 4 h after dosing) was 0.01 ± 0 % injected Dose/gram, the Uptake (Heart, 24 h after dosing) was 0.01 ± 0 % injected Dose/gram and the Uptake (Heart, 48 h after dosing) was 0.016 ± 0.03 % injected Dose/gram. The Uptake (Kidneys, 1 h after dosing) was 0.86 ± 0.177 % injected Dose/gram, the Uptake (Kidneys, 2 h after dosing) was 0.8 ± 0.065 % injected Dose/gram and the Uptake (Kidneys, 4 h after dosing) was 0.695 ± 0.106 % injected Dose/gram. It also gave an Uptake (Kidneys, 24 h after dosing) of 0.448 ± 0.109 % injected Dose/gram, an Uptake (Kidneys, 48 h after dosing) of 0.233 ± 0.153 % injected Dose/gram and an Uptake (Lg. Intestine, 1 h after dosing) of 0.088 ± 0.083 % injected Dose/gram. The Uptake (Lg. Intestine, 2 h after dosing) was 2.878 ± 2.718 % injected Dose/gram, the Uptake (Lg. Intestine, 4 h after dosing) was 1.865 ± 0.963 % injected Dose/gram and the Uptake (Lg. Intestine, 24 h after dosing) was 0.02 ± 0 % injected Dose/gram. The Uptake (Lg. Intestine, 48 h after dosing) was 0.018 ± 0.013 % injected Dose/gram, the Uptake (Liver, 1 h after dosing) was 0.658 ± 0.074 % injected Dose/gram and the Uptake (Liver, 2 h after dosing) was 0.358 ± 0.083 % injected Dose/gram. For the same substance, the Uptake (Liver, 4 h after dosing) was 0.065 ± 0.024 % injected Dose/gram, the Uptake (Liver, 24 h after dosing) was 0.028 ± 0.01 % injected Dose/gram and the Uptake (Liver, 48 h after dosing) was 0.018 ± 0.012 % injected Dose/gram. For the same substance, the Uptake (Lungs, 1 h after dosing) was 0.083 ± 0.032 % injected Dose/gram, the Uptake (Lungs, 2 h after dosing) was 0.048 ± 0.005 % injected Dose/gram and the Uptake (Lungs, 4 h after dosing) was 0.023 ± 0.005 % injected Dose/gram. For the same substance, the Uptake (Lungs, 24 h after dosing) was 0.013 ± 0.005 % injected Dose/gram, the Uptake (Lungs, 48 h after dosing) was 0.01 ± 0 % injected Dose/gram and the Uptake (Muscle, 1 h after dosing) was 0.028 ± 0.01 % injected Dose/gram. It also gave an Uptake (Muscle, 2 h after dosing) of 0.043 ± 0.013 % injected Dose/gram, an Uptake (Muscle, 4 h after dosing) of 0.013 ± 0.005 % injected Dose/gram and an Uptake (Muscle, 24 h after dosing) of 0.003 ± 0.005 % injected Dose/gram. For the same substance, the Uptake (Muscle, 48 h after dosing) was 0.051 ± 0.1 % injected Dose/gram, the Uptake (Sm. Intestine, 1 h after dosing) was 1.493 ± 0.554 % injected Dose/gram and the Uptake (Sm. Intestine, 2 h after dosing) was 0.86 ± 0.389 % injected Dose/gram. The Uptake (Sm. Intestine, 4 h after dosing) was 0.128 ± 0.05 % injected Dose/gram, the Uptake (Sm. Intestine, 24 h after dosing) was 0.01 ± 0 % injected Dose/gram and the Uptake (Sm. Intestine, 48 h after dosing) was 0.005 ± 0.006 % injected Dose/gram. The Uptake (Spleen, 1 h after dosing) was 0.06 ± 0.041 % injected Dose/gram, the Uptake (Spleen, 2 h after dosing) was 0.053 ± 0.005 % injected Dose/gram and the Uptake (Spleen, 4 h after dosing) was 0.025 ± 0.01 % injected Dose/gram. The Uptake (Spleen, 24 h after dosing) was 0.023 ± 0.005 % injected Dose/gram, the Uptake (Spleen, 48 h after dosing) was 0.01 ± 0.012 % injected Dose/gram and the Uptake (Stomach, 1 h after dosing) was 0.06 ± 0.055 % injected Dose/gram. For the same substance, the Uptake (Stomach, 2 h after dosing) was 0.2 ± 0.071 % injected Dose/gram, the Uptake (Stomach, 4 h after dosing) was 0.045 ± 0.017 % injected Dose/gram and the Uptake (Stomach, 24 h after dosing) was 0.01 ± 0 % injected Dose/gram. The Uptake (Stomach, 48 h after dosing) was 0.013 ± 0.013 % injected Dose/gram, the Uptake (Tail, 1 h after dosing) was 0.245 ± 0.179 % injected Dose/gram and the Uptake (Tail, 2 h after dosing) was 0.183 ± 0.056 % injected Dose/gram. It also gave an Uptake (Tail, 4 h after dosing) of 0.118 ± 0.041 % injected Dose/gram, an Uptake (Tail, 24 h after dosing) of 0.065 ± 0.044 % injected Dose/gram and an Uptake (Tail, 48 h after dosing) of 0.01 ± 0.008 % injected Dose/gram. The “Clearance (time course of activity in vital tissues and blood)” value (comparison of the two probes) was “cleared at similar rates”.
